This note sets out measurements from ChEMBL document CHEMBL3988442, “University of Dundee, Small-Polar-MMV Screening Library” (2021).

The structures appear in SMILES notation. “And” between values parts separate entries of the source, which are not always exact repeats. Equal entries are not always repeated.

In one test the target is Lysine--tRNA ligase (Plasmodium falciparum (isolate 3D7), UniProt Q8IDJ8). The experiment in a line: Pf-KRS-1 (Lysyl-RNA Synthetase-1, KRS-1, cytosolic KRS) from Plasmodium falciparum. Inhibitor assay, 384 well plate, luminescence read. The class given is functional.
Test [1] deals with T1, Coenzyme A biosynthesis bifunctional protein CoaBC (Mycobacterium tuberculosis (strain ATCC 25618 / H37Rv), UniProt P9WNZ1).
T1 sequence (P9WNZ1 whole entry): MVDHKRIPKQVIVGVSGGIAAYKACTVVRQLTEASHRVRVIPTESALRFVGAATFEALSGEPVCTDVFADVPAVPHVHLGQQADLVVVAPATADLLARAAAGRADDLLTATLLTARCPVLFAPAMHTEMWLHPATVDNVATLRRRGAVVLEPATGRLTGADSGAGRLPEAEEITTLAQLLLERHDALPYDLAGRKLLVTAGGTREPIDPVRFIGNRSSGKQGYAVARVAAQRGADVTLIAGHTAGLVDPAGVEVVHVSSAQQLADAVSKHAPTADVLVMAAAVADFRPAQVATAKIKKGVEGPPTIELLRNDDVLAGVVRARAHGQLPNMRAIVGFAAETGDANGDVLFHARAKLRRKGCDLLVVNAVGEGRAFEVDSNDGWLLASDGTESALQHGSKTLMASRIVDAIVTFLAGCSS
The experiment in a line: Biomol Green assay for MtCoaBC inhibitor, OD650 read. The class given is functional.

The test system of a further test is Leishmania donovani. The experiment in a line: Leishmania intramacrophage assay. The class given is functional, organism-based. Conditions: Leishmania donovani.
For a further test, the target named is T2, Histidine--tRNA ligase (Leishmania infantum, UniProt A4I591).
T2 sequence (A4I591 whole entry): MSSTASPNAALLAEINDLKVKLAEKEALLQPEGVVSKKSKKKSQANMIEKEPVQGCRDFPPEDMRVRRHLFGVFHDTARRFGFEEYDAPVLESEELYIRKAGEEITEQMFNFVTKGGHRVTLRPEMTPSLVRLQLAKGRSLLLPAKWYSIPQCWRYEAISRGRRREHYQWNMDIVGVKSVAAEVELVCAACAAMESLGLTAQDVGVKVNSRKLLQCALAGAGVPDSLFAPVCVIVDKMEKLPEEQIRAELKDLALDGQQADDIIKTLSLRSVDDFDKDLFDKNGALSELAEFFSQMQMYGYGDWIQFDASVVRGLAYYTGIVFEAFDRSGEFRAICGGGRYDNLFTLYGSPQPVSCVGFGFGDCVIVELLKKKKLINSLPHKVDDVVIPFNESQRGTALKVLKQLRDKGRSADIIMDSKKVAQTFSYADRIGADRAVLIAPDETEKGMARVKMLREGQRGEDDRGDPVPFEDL
The experiment in a line: Leishmania infantum Histidine tRNA synthetase (LdHisRS). Type of test: functional.

The target in the next test is ClpP1P2 (Mycobacterium tuberculosis (strain ATCC 25618 / H37Rv), UniProt P9WPC3+P9WPC5). The experiment in a line: in vitro assay to detect presence of AMC directly proportional to the activity of ClpP1P2. GHDDI collaboration. Type of test: functional.
Test [2] in a line: In vitro enzyme assay to detect hydrolysis of chlorophenol red-beta-D-[…] directly proportional to the number of Toxoplasma stably expressing beta-galactosidase. Type of test: functional, organism-based, Toxoplasma gondii. As to conditions: for IC50: Toxoplasma gondii.

For `COC(=O)c1ccc2ccn(CC3CCCCO3)c(=O)c2c1` (stereo not drawn), on Lysine--tRNA ligase, half-maximal inhibition (IC50) required 38.2 µM.

In the case of `Cc1cc(C(=O)N2CCCC3(COCCN(CCN(C)C)C3)C2)no1` (stereo not drawn), on Lysine--tRNA ligase, the IC50 is more than 50.1 µM. `O=C([C@@H]1C[C@H]2[C@H](CCN2Cc2nccs2)O1)N1CCOCC1` gave a concentration for half-maximal inhibition (IC50) against Lysine--tRNA ligase of more than 50.1 µM.

As to `COc1cccc(-n2c(C)cc(C(=O)NS(C)(=O)=O)c2C)c1`, the IC50 at Lysine--tRNA ligase was more than 50.1 µM. The same measure, in the same setting: the value for `CSc1cc2c(cc1NC(=O)NCC(C)(C)C(N)=O)OCCO2` was more than 50.1 µM; that for `CNc1ncc2c(n1)CN(C1CCCC1)C2=O` was more than 50.1 µM. Same read-out and setting: next, `CC(NC(=O)NCCCOc1ccccc1F)c1nncn1C` (stereo not drawn): more than 50.1 µM; `CCc1n[nH]c(C2CN(Cc3nc(C4CC4)no3)CCO2)n1` (stereo not drawn): more than 50.1 µM; `Cc1sc(Oc2ccccc2Cl)nc1C(=O)O`: more than 50.1 µM. Still for that read-out and setting: the value for `O=S(=O)(NC1CCC12CCN(CC1CCOCC1)CC2)c1ccccc1` (stereo not drawn) was more than 50.1 µM; that for `CS(=O)(=O)N1C[C@H](C(=O)Nc2cnccn2)C[C@H]2OCC[C@H]21` was more than 50.1 µM. Turning to `c1csc(CN2CCCN(c3ncnc4[nH]ccc34)CC2)c1`, on Lysine--tRNA ligase, the half-maximal inhibitory concentration (IC50) is more than 50.1 µM. As for `Cc1nc(N(C)C)ncc1C(=O)NCCc1csc(-c2ccncc2)n1`, the IC50 against Lysine--tRNA ligase is more than 50.1 µM. In the case of `CNS(=O)(=O)c1ccc(CNC(=O)NCC2CCC2)cc1`, the IC50 on Lysine--tRNA ligase is more than 50.1 µM. Same read-out and setting: next, `CC(C)SCCn1ccc2[nH]c(=O)c(C#N)cc2c1=O`: more than 50.1 µM; `Cc1noc(C)c1CN1CCOC2(CCCN(c3nncs3)C2)C1` (stereo not drawn): more than 50.1 µM. The same measure, in the same setting: next, `CCC1CCC(CNC(=O)c2c[nH]c(=O)c(Cl)c2)CC1` (stereo not drawn): more than 50.1 µM. The same measure, in the same setting: the value for `NS(=O)(=O)c1ccc(NC(=O)CSc2ccc3c(c2)CCC3)cc1` was more than 50.1 µM; that for `CC(C)NC(=O)N1CCc2c(CNc3ncccn3)cncc2C1` was more than 50.1 µM.

`Cc1ccc(C2CCCN2Cc2nc3c(cnn3C)c(=O)[nH]2)cc1C` (stereo not drawn) gave an IC50 against Lysine--tRNA ligase of more than 50.1 µM. With `O=C(NCc1csc(Br)c1)c1ccncc1`, the half-maximal inhibitory concentration (IC50) on Lysine--tRNA ligase was more than 50.1 µM. Still for that read-out and setting: next, `CC(Nc1ccn(Cc2ccccn2)n1)C(=O)NC(C)(C)C` (stereo not drawn): more than 50.1 µM. As to `Cc1cc(NC(=O)CCCn2ccnc2C)nc(C(C)C)n1`, the IC50 against Lysine--tRNA ligase is more than 50.1 µM.

With `CSCCC(O)C(=O)N1CCCN(Cc2cccnc2)CC1` (stereo not drawn), at Lysine--tRNA ligase, the IC50 was more than 50.1 µM. Same read-out and setting: the value for `CSc1cccc(CN(C)C(=O)Nc2nc(C)n(C)n2)c1` was more than 50.1 µM; that for `Cc1cc(C)c2nc(CNC3CCNC3=O)cc(O)c2c1` (stereo not drawn) was more than 50.1 µM. Still for that read-out and setting: the value for `Cn1c(CN2CCCc3cc(F)cc(F)c32)cc(=O)n(C)c1=O` was more than 50.1 µM; that for `COc1nccnc1N1CCC2(CC1)[C@H](O)C[C@@H]2OCCN(C)C` was more than 50.1 µM. On the same count and under the same terms, next, `O=C1CC(c2ccc(O)cc2)c2c(c(C(=O)O)cn2-c2ccccc2)N1` (stereo not drawn): more than 50.1 µM; `Cc1nnc(N2CCC(CCN(C)C)CC2)c(C#N)c1C`: more than 50.1 µM. Turning to `c1ncc2c(n1)CN(CC1CCCCO1)CC2` (stereo not drawn), half-maximal inhibition on Lysine--tRNA ligase (IC50) was put at 32.7 µM.

Turning to `Cc1cc(C(N)=O)ccc1NC(=O)c1nc(N2CCCC2)ncc1Cl`, the IC50 on Lysine--tRNA ligase was more than 50.1 µM. Same read-out and setting: next, `CC(=O)c1cc(CC(=O)N2CCN(S(=O)(=O)c3ccccc3)CC2)cs1`: more than 50.1 µM; `Cc1cc2ccccc2n1CCC(=O)N1CCCCC1CCO` (stereo not drawn): more than 50.1 µM.

Compound `CCOCC1CN(C(=O)c2cnoc2C)Cc2cn(CC3CC3)nc21` (stereo not drawn) gave a 50% inhibitory concentration (IC50) on Lysine--tRNA ligase of more than 50.1 µM. Still for that read-out and setting: next, `Cc1nc(N(C)CCCc2nccn2C)c2c(C)nn(C)c2n1`: more than 50.1 µM; `O=C(COCc1ccccc1Cl)N1CCN(c2cnccn2)CC1`: more than 50.1 µM; `Cc1ccc(C(=O)NCc2cc(F)ccc2N2CCCN(C)CC2)o1`: more than 50.1 µM. Still for that read-out and setting: the value for `Cc1ccnc(NCCNC(=O)C2CC3(CCNCC3)CN2C)c1` (stereo not drawn) was more than 50.1 µM; that for `COc1c(C)cnc(CN(C)C(=O)c2ccccc2F)c1C` was more than 50.1 µM; that for `Cc1nc(NC(C)C)nc2c1CN(Cc1nccn1C)CC2` was more than 50.1 µM. On the same count and under the same terms, the value for `CCCc1ccc(CN2CCN(C(=O)CC(C)C)[C@@H]3CS(=O)(=O)C[C@@H]32)o1` was more than 50.1 µM. Regarding `O=c1[nH]c2c(c(=O)n1C1CCCCC1)CCC2Nc1ccccc1` (stereo not drawn), at Lysine--tRNA ligase, the IC50 is more than 50.1 µM. On the same count and under the same terms, next, `COc1cc(CNCCn2ccnc2)cc2c1OCO2`: more than 50.1 µM; `CN1C[C@@H]2CC[C@H](CC1=O)N2C(=O)c1ccc(-c2ccccc2)[nH]c1=O`: more than 50.1 µM; `COc1ccc(C2CCCN2C(=O)Nc2ccc(OC)nc2)cc1` (stereo not drawn): more than 50.1 µM. The same measure, in the same setting: next, `Cc1ccc([C@@H]2CN(C(=O)c3cc(C)no3)C[C@H]2NC(=O)C2CC2)cc1`: more than 50.1 µM.

In turn, `Cc1cc(CN(C)C(=O)c2cccc(N3CCCC3=O)c2)no1` showed an IC50 against Lysine--tRNA ligase of more than 50.1 µM. Still for that read-out and setting: the value for `COCCOc1ccc(NC(=O)N2CCCC2c2cccs2)cn1` (stereo not drawn) was more than 50.1 µM; that for `N#Cc1cccc(CN2CCN(Cc3cscn3)CC2)c1` was more than 50.1 µM; that for `O=C(CC1CCCC1)N1CC[C@H]2[C@H]1CCN2c1nncs1` was more than 50.1 µM. On the same count and under the same terms, the value for `Cc1cc(C2CCC2)nc(N2CCC3(CC2)OCCCC3O)n1` (stereo not drawn) was more than 50.1 µM. Consider `COc1cccc(COCC(=O)N2CCCC(n3cccn3)C2)c1` (stereo not drawn), for which the IC50 against Lysine--tRNA ligase is more than 50.1 µM. Consider `CCCC(=O)N1CCCCC1C(=O)Nc1ccc(-c2nnc[nH]2)cc1` (stereo not drawn), for which the IC50 against Lysine--tRNA ligase was more than 50.1 µM. On the same count and under the same terms, the value for `O=C(CCNC(=O)c1ccoc1)Nc1cccc(F)c1` was more than 50.1 µM; that for `N#CCc1ccc(OCC(=O)N2CCCC(n3cccn3)C2)cc1` (stereo not drawn) was more than 50.1 µM; that for `COCCC(=O)N1CCC2(CC1)CC(c1ccccc1)CN(C1CC1)C2` (stereo not drawn) was more than 50.1 µM. The compound `Cc1ncc2c(n1)CN(CC1CCCCO1)CC2` (stereo not drawn) showed a half-maximal inhibitory concentration (IC50) against Lysine--tRNA ligase of 35.9 µM. On the same count and under the same terms, next, `c1cnn(C2CN(c3ncnc4[nH]ccc34)C2)c1`: more than 50.1 µM; `Cc1nc(N(C)CCCc2nccn2C)c2nc(C)oc2n1`: more than 50.1 µM. `c1ccc(SCCN2CCCC(Cn3ccnc3)C2)cc1` (stereo not drawn) gave an IC50 at Lysine--tRNA ligase of more than 50.1 µM. Still for that read-out and setting: the value for `O=C(COCCc1ccccc1)N1CCCC(n2cccn2)C1` (stereo not drawn) was more than 50.1 µM; that for `O=C(NCCc1ccco1)Nc1cc(C(F)(F)F)c[nH]c1=O` was more than 50.1 µM; that for `CCN(Cc1cccc(F)c1)c1ccc2nnnn2n1` was more than 50.1 µM.

On to `CN(C)C(=O)N1C[C@@H]2CC[C@H](C1)N(C/C=C/c1ccc(F)cc1)C2`, for which, at Lysine--tRNA ligase, the concentration for half-maximal inhibition (IC50) is more than 50.1 µM.

With `FC(F)(F)c1ccc(CN2CCN(Cc3cscn3)CC2)cc1`, on Lysine--tRNA ligase, the IC50 was more than 50.1 µM. As for `O=C(O)CN1CCC(F)(F)C2(CCN(c3ccccc3)C2)C1` (stereo not drawn), the IC50 is more than 30.2 µM in test [1]; more than 50.1 µM in the test on Leishmania donovani; 43.6 µM and 39.5 µM at Histidine--tRNA ligase. On to `Cc1n[nH]c(C)c1-c1c(C#N)c(N)nc2c1CCc1[nH]ccc1-2`, for which the IC50 in test [1] was more than 30.2 µM; against Histidine--tRNA ligase, 16.8 µM and 18.1 µM; at ClpP1P2, more than 100 µM. As for `Cc1nc(-c2ccc(CC(=O)N3CCN(C(=O)C(C)C)CC3)cc2)cs1`, the IC50 was more than 30.2 µM in test [1]; 24.8 µM and 12.4 µM against Histidine--tRNA ligase; 8.96 µM on ClpP1P2. Regarding `NCC1Cc2cc(Oc3cc(F)c(CN4CCCC4)c(F)c3)ccc2O1` (stereo not drawn), the half-maximal inhibitory concentration (IC50) was 20.4 µM in test [2]; more than 30.2 µM in test [1]; 30.2 µM and 36.9 µM against Histidine--tRNA ligase; 20.8 µM at ClpP1P2. `CCn1cc(-c2cc(C(F)(F)F)nc(NC3CCCC3)n2)c(C)n1` gave a pIC50 in test [2] of 4.783. Further, the IC50 was 17.8 µM in test [2], more than 30.2 µM in test [1] and more than 50.1 µM in the test with Leishmania donovani.
